Columns and labels:
[1] = tested on: increasing of blood pressure induced by STA2; assay: Inhibitory effect on increasing of blood pressure induced by STA2 in guinea pigs; type: in vivo; settings: 100 μg/kg
Description: (iii) Inhibitory effect on increasing of blood pressure induced by STA2 in guinea pigs: A 7% sodium bicarbonate buffer solution (pH 7.6-8.6) of each tested compounds was administered intravenously via carotid vein or orally to a urethane-anaesthetized male guinea pig weighing 250~350 g, at a rate of 10-1000 μg/kg animal body weight. And then guinea pigs were administered intravenously a solution of STA2 in phosphate buffer (pH 7.4). change of the blood pressure was measured at carotid artery and then inhibition ratio (%) was calculated.
(§1) For example, in a standard laboratory test, the effects were possible to be confirmed by (i) inhibitory effect on increasing of blood pressure induced by STA2 in guinea pigs (antagonistic effect) and (ii) stimulatory effect on increasing of blood pressure in guinea pigs (agnostic effect).
(§2) Inhibitory effect on increasing of blood pressure induced by TXA2 in guinea pigs and stimulatory effect on increasing of blood pressure in guinea pigs: A 7% sodium bicarbonate buffer solution (pH 7.6~8.6) of each tested compounds was administered intravenously via carotid vein or orally to a urethane-anaesthetized male guinea pig weighing 250~350 g, at a rate of 100 μg/kg animal body weight. Increasing of blood pressure was measured in guinea pigs administered test compounds intravenously. On the other hand, to guinea pigs administered test compounds orally, then a solution of STA2 in phosphate buffer (pH 7.4) was administered. Change of the blood pressure was measured at carotid artery and then inhibition ratio (%) was calculated.

[2] = tested on: increasing of blood pressure in guinea pigs; assay: Stimulatory effect on increasing of blood pressure in guinea pigs (agonistic effect on TXA2); type: in vivo; settings: 100 μg/kg, i.v. (n = 2~4)
Excerpt: as §1, §2

[3] = tested on: platelet aggregation induced by STA2 in human blood; assay: Inhibitory effect on platelet aggregation induced by STA2 in human blood; type: cell-based; settings: platelet aggregation induced by STA2 in human blood (platelet rich plasma, method of Born); read-out: Inhibitory effects on platelet aggregation (IC50)
Excerpt: For example, in a standard laboratory test, the effects were possible to be confirmed by (i) inhibitory effect on platelet aggregation induced by STA2 (9α, 11α-epithio-15α-hydroxy-11α-carbathromba-5Z,13E-dienoic acid) in human blood, (ii) inhibitory effect on contraction of smooth muscle induced by STA2 in guinea pigs or (iii) inhibitory effect on increasing of blood pressure induced by STA2 in guinea pigs (intravenously and orally).
(i) Inhibitory effect on platelet aggregation induced by STA2 in human blood: Whole blood of healthy human adult was collected with citric acid, and the mixture (20 ml) was centrifuged (180×g) for 10 min. The supernatant obtained was diluted with sufficient platelet poor plasma to obtain plasma which contains 300,000 platelet cells power μl. A solution of tested compound in ethanol (1 μl) was added to the obtained plasma (250 μl), and then a solution of STA2 is ethanol was added to the mixtures. The measurement was carried out followed by the method of Born and then IC50 was calculated.

Row | SMILES | (i) Duration of more than 50% inhibit increasing of blood pressure induced STA2 pig [1] [min] | (ii) Effect of increasing of blood pressure in guinea pig [2] [mmHg] | IC50 [3] [nM]
1 | Cc1ccc(S(=O)(=O)N[C@H]2[C@H]3CC[C@H](C3)[C@@H]2C/C=C\CCCC(N)=O)cc1 | > 340 | 9 | 
2 | O=C(O)CCC/C=C\[C@H]1C[C@@H]2C[C@H]1[C@@H](NS(=O)(=O)c1ccc(Br)cc1)C2 (relative stereo) [1 (c), (5Z)-6-[(1R*, 2R*, 4R*, 6S*)-6-(4-bromobenzenesulfonylamino)bicyclo[2.2.1]heptan-2-yl]hex-5-enoic acid] |  |  | 1000
3 | O=C(O)CCC/C=C\[C@H]1CCCC[C@@H]1CNS(=O)(=O)c1ccc(Br)cc1 (relative stereo) [1 (t), (5Z)-6-[(1R*, 2S*,)-2-[N-(4-bromobenzenesulfonyl)aminometh-yl]cyclohexan-1-yl]hex-5-enoicacid] |  |  | 520
4 | O=C(O)CCC/C=C\[C@H]1[C@@H]2CC[C@@H](C2)[C@@H]1CCNS(=O)(=O)c1ccc(Br)cc1 [1 (u), (5Z)-6-[(1R, 2R, 3S, 4S)-3-[2-[N-(4-bromobenzenesulfonyl)amino]ethyl]bicyclo[2.2.1]heptan-2-yl]hex-5-enoic acid] |  |  | 1000
5 | O=C(O)CCC/C=C\[C@H]1[C@@H]2CC[C@@H](C2)[C@@H]1CNS(=O)(=O)c1ccccc1 [1 (q), (5Z)-6-[(1R, 2R, 3S, 4S)-3-(N-benzenesulfonylaminomethyl)bicyclo[2.2.1]heptan-2-yl]hex-5-enoic acid] |  |  | 1670
6 | O=C(O)CCC/C=C\[C@H]1CCC[C@@H]1CNS(=O)(=O)c1ccc(Br)cc1 (relative stereo) [1 (v), (5Z)-6-[(1R, 2S*)-2-[N-(4-bromobenzenesulfonyl)aminomethyl]cyclopentan-1-yl]hex-5-enoic acid] |  |  | 220
7 | Cc1ccc(S(=O)(=O)N[C@@H]2C[C@@H]3C[C@H](C/C=C\CCCC(=O)O)[C@H]2C3)cc1 (relative stereo) [4 (a)] |  |  | 1780
8 | O=C(O)CCC/C=C\[C@H]1[C@@H]2CC[C@@H](C2)[C@@H]1CNS(=O)(=O)c1ccc(Br)cc1 [1 (r), (5Z)-6[(1R, 2R, 3S, 4S)-3-[N-(4-bromobenzenesulfonyl)aminomethyl]bicyclo[2.2.1]heptan-2-yl]hex-5-enoic acid] |  |  | 280
9 | Cc1ccc(S(=O)(=O)N[C@H]2[C@H]3CC[C@H](C3)[C@@H]2C/C=C\CCCC(=O)NC(C)C(=O)O)cc1 (stereo partly drawn) [7 (b), amide of (5Z)-7-[(1R, 2S, 3S, 4S)-3-tosylaminobicyclo[2.2.1]heptan-2-yl]hept-5-enoic acidand alanine] | > 290 | 11 | 
10 | Cc1ccc(S(=O)(=O)NC[C@H]2CCC[C@@H]2/C=C\CCCC(=O)O)cc1 (relative stereo) [1 (w), (5Z)-6-[(1R, 2S*)-2-[N-tosylaminomethyl]cyclopentan-1-yl]hex-5-enoic acid] |  |  | 680
11 | Cc1ccc(S(=O)(=O)N[C@H]2[C@H]3CC[C@H](C3)[C@@H]2C/C=C\CCCC(=O)NC(CCC(=O)O)C(=O)O)cc1 (stereo partly drawn) [7 (c), amide of (5Z)-7-[(1R, 2S, 3S, 4S)-3-tosylaminobicyclo[2.2.1]heptan-2-yl]hept-5-enoic acidand glutamic acid] | > 290 | 7 | 
12 | Cc1ccc(S(=O)(=O)NC[C@H]2[C@H]3CC[C@H](C3)[C@@H]2/C=C\CCCC(=O)O)cc1 (relative stereo) [1 (p), (5Z)-6-[(1R*, 2R*, 3S*, 4S*)-3-[N-tosylaminomethyl]bicyclo[2.2.1]heptan-2-yl]hex-5-enoic acid] |  |  | 90
13 | Cc1ccc(S(=O)(=O)NC[C@@H]2[C@@H]3CC[C@@H](C3)[C@H]2/C=C\CCCC(=O)O)cc1 [1 (x), (5Z)-6-[(1S, 2S, 3R, 4R)-3-[N-tosyl-aminomethyl]bicyclo[2.2.1]heptan-2-yl]hex-5-enoic acid] |  |  | 50
14 | NC(=O)CCC/C=C\[C@@H]1[C@H]2CC[C@H](C2)[C@H]1CNS(=O)(=O)c1ccc(Br)cc1 [6 (d), (5Z)-6-[(1S, 2S, 3R, 4R)-3[N-(4-bromobenzenesulfonyl)aminomethyl]bicyclo[2.2.1]heptan-2-yl]hex-5-enamide] | > 240 | 6 | 
15 | CCCCCCCCOC(=O)CCC/C=C\[C@@H]1[C@H]2CC[C@H](C2)[C@H]1CNS(=O)(=O)c1ccc(Br)cc1 [5 (g), octyl(5Z)-6-[(1S, 2S, 3R, 4R)-3-[N-(4-bromobenzenesulfonyl)aminomethyl]bicyclo[2.2.1]heptan-2-yl]hex-5-enoate] | > 300 | 1 | 
16 | Cc1ccc(S(=O)(=O)N[C@H]2[C@H]3CC[C@H](C3)[C@@H]2C/C=C\CCCC(=O)N[C@@H](CCCCN)C(=O)O)cc1 [Example 8, Amide of (5Z)-7-[(1R, 2S, 3S, 4S)-3-tosylaminobicyclo [2.2.1]heptan-2-yl]hept-5-enoic acid and lysine] | 305 | 7 | 
17 | Cc1ccc(S(=O)(=O)N[C@H]2[C@H]3CC[C@H](C3)[C@@H]2C/C=C\CCCC(=O)O)cc1 [The compared compound, reference compound] | 205 | 36 | 
18 | CC(C)[C@@H]1CC[C@@H](C)C[C@H]1OC(=O)CCC/C=C\[C@@H]1[C@H]2CC[C@H](C2)[C@H]1CNS(=O)(=O)c1ccc(Br)cc1 [5 (h), menthyl(5Z)-6-[(1S, 2S, 3R, 4R)-3-[N-(4-bromobenzenesulfonyl)aminomethyl]bicyclo[2.2.1]heptan-2-yl]hex-5-enoate] | > 300 | 1 | 
19 | O=C(O)CCC/C=C\[C@@H]1CC[C@H](NS(=O)(=O)c2ccc(Br)cc2)C1 [1 (i), (5Z)-6-[(1R, 3S)-3-(4-bromobenzenesulfonylamino)cyclopentyl]hex-5-enoic acid] |  |  | 30
20 | Cc1ccc(S(=O)(=O)N[C@H]2[C@H]3CC[C@H](C3)[C@@H]2C/C=C\CCCC(=O)NCC(=O)O)cc1 [Example 7, Amide of (5Z)-7-[(1R, 2S, 3S, 4S)-3-tosylaminobicyclo [2.2.1]heptan-2-yl]hept-5-enoic acid and glycine] | > 270 | 9 | 
21 | O=C(O)CCC/C=C\[C@@H]1[C@H]2CC[C@H](C2)[C@H]1CNS(=O)(=O)c1ccc(Br)cc1 [1 (y), (5Z)-6-[(1S, 2S, 3R, 4R)-3-[N-(4-bromobenzenesulfonyl)aminomethyl]bicyclo[2.2.1]heptan-2-yl]hex-5-enoic acid] |  |  | 10
22 | O=C(O)CCC/C=C\[C@@H]1CCC[C@H](NS(=O)(=O)c2ccc(Br)cc2)C1 (relative stereo) [1 (m), (5Z)-6-[(1R*, 3S*)-3-(4-bromobenzenesulfonylamino)cyclohexyl]hex-5-enoic acid] |  |  | 170
23 | Cc1ccc(S(=O)(=O)NCC2C3CCC(C3)C2C=CCCCC(=O)O)cc1 [1 (s), (5Z)-6-[(1S, *2S*, 3S*, 4R*)-3-[N-tosylaminomethyl]bicyclo[2.2.1]heptan-2-yl]hex-5-enoic acid] |  |  | 520
24 | O=C(O)CCC/C=C\[C@H]1C[C@@H]2CC[C@H]1[C@@H](NS(=O)(=O)c1ccc(Br)cc1)C2 (relative stereo) [1 (a), (5Z)-6-[(1R*, 2R*, 4S*, 6S*)-6-(4-bromobenzenesulfonylamino)bicyclo[2.2.2]octan-2-yl]hex-5-enoic acid] |  |  | 660

— US5168101A, “Sulfonamide derivatives” (Ono Pharmaceutical Co., Ltd., priority 1987, dated 1992)
